# Measured values: PubChem BioAssay (NCI)
#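 Assay format: 96-well plates, 48-hour exposure. Here, GI50 denotes the concentration required for 50% inhibition of growth. TGI denotes the concentration required for complete inhibition of growth.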
# How the values were obtained:
# Test in all cases: inhibition of tumour cell growth, NCI panel, 48 h
# 786-0 renal = tested on: 786-0 renal
# HL-60(TB) leukemia = tested on: HL-60(TB) leukemia
# SF-295 CNS = tested on: SF-295 CNS
# RXF 393 renal = tested on: RXF 393 renal
# ACHN renal = tested on: ACHN renal
# LOX IMVI melanoma = tested on: LOX IMVI melanoma
# HCT-116 colon = tested on: HCT-116 colon
# SNB-19 CNS = tested on: SNB-19 CNS
# IGROV1 ovarian = tested on: IGROV1 ovarian
# OVCAR-5 ovarian = tested on: OVCAR-5 ovarian
# SK-MEL-28 melanoma = tested on: SK-MEL-28 melanoma
# NCI/ADR-RES ovarian = tested on: NCI/ADR-RES ovarian
# SF-539 CNS = tested on: SF-539 CNS
# SF-268 CNS = tested on: SF-268 CNS
# MALME-3M melanoma = tested on: MALME-3M melanoma
# OVCAR-4 ovarian = tested on: OVCAR-4 ovarian
# SK-MEL-2 melanoma = tested on: SK-MEL-2 melanoma
# HOP-92 NSCLC = tested on: HOP-92 NSCLC
# SR leukemia = tested on: SR leukemia
# MDA-MB-231 breast = tested on: MDA-MB-231 breast
# DU-145 prostate = tested on: DU-145 prostate
# K-562 leukemia = tested on: K-562 leukemia
# HS 578T breast = tested on: HS 578T breast
# KM12 colon = tested on: KM12 colon
# UACC-257 melanoma = tested on: UACC-257 melanoma
# OVCAR-3 ovarian = tested on: OVCAR-3 ovarian
# SN12C renal = tested on: SN12C renal
# NCI-H460 lung = tested on: NCI-H460 lung
# HOP-62 NSCLC = tested on: HOP-62 NSCLC
compound,measurement,setting,value
O=C(Nc1ccc(OCc2ccccc2)cc1)Nc1ccc(Cl)c(C(F)(F)F)c1,GI50,786-0 renal,2.09 µM
same,TGI,786-0 renal,9.89 µM
same,GI50,HL-60(TB) leukemia,1.54 µM
same,TGI,HL-60(TB) leukemia,7.77 µM
same,GI50,SF-295 CNS,1.76 µM
same,TGI,SF-295 CNS,5.44 µM
same,GI50,RXF 393 renal,4.53 µM
same,TGI,RXF 393 renal,41.2 µM
same,GI50,ACHN renal,1.76 µM
same,TGI,ACHN renal,4.93 µM
same,GI50,LOX IMVI melanoma,2.02 µM
same,TGI,LOX IMVI melanoma,7.36 µM
same,GI50,HCT-116 colon,1.9 µM
same,TGI,HCT-116 colon,11.5 µM
same,GI50,SNB-19 CNS,2.01 µM
same,TGI,SNB-19 CNS,14.1 µM
same,GI50,IGROV1 ovarian,2.57 µM
same,TGI,IGROV1 ovarian,> 64.3 µM
same,GI50,OVCAR-5 ovarian,3.25 µM
same,TGI,OVCAR-5 ovarian,58.3 µM
same,GI50,SK-MEL-28 melanoma,2.02 µM
same,TGI,SK-MEL-28 melanoma,> 64.3 µM
same,GI50,NCI/ADR-RES ovarian,1.94 µM
same,TGI,NCI/ADR-RES ovarian,7.23 µM
same,GI50,SF-539 CNS,2.34 µM
same,TGI,SF-539 CNS,9.41 µM
same,GI50,SF-268 CNS,2.28 µM
same,TGI,SF-268 CNS,> 64.3 µM
same,GI50,MALME-3M melanoma,1.54 µM
same,TGI,MALME-3M melanoma,4.36 µM
same,GI50,OVCAR-4 ovarian,2.37 µM
same,TGI,OVCAR-4 ovarian,27 µM
same,GI50,SK-MEL-2 melanoma,1.51 µM
same,TGI,SK-MEL-2 melanoma,3.65 µM
same,GI50,HOP-92 NSCLC,1.34 µM
same,TGI,HOP-92 NSCLC,3.83 µM
same,GI50,SR leukemia,2.19 µM
same,TGI,SR leukemia,13.2 µM
same,GI50,MDA-MB-231 breast,2.58 µM
same,TGI,MDA-MB-231 breast,11.1 µM
same,GI50,DU-145 prostate,2.28 µM
same,TGI,DU-145 prostate,21.1 µM
same,GI50,K-562 leukemia,2.34 µM
same,TGI,K-562 leukemia,> 64.3 µM
same,GI50,HS 578T breast,1.9 µM
same,TGI,HS 578T breast,15.7 µM
same,GI50,KM12 colon,2.1 µM
same,TGI,KM12 colon,12 µM
same,GI50,UACC-257 melanoma,1.4 µM
same,TGI,UACC-257 melanoma,5.67 µM
same,GI50,OVCAR-3 ovarian,1.61 µM
same,TGI,OVCAR-3 ovarian,4.96 µM
same,GI50,SN12C renal,1.75 µM
same,TGI,SN12C renal,6.71 µM
same,GI50,NCI-H460 lung,1.69 µM
same,TGI,NCI-H460 lung,5.61 µM
same,GI50,HOP-62 NSCLC,2.11 µM
same,TGI,HOP-62 NSCLC,41.1 µM
